Test results published in patent publication US5409926A, “AT-2 antagonist inhibition of vascular restenosis” (Merck & Co., Inc., priority 1993, dated 1995).
“Also recorded” adds a separate entry of the source.

Assays:
Assay type in all cases: in vivo
restenosis in the rat [1] = experiment: Effect of Compound II or Compound I pretreatment on restenosis in the rat; conditions: 1 mg/kg/day i.v.; for Intimal Area / % Inhibition (intimal area): 48 h pretreatment, 14 days; for % Inhibition (intimal area): vs. control
Method: The Effect of Compound II on restenosis in the rat
Rats were pretreated with Compound II or Compound I for the 48 hour period prior to surgery as well as on the day of surgery (1 mg/kg/day, bolus i.v.). Drug treatment was continued at the time of angioplasty (1 mg/kg/day, continuous i.v.) for the duration of the experiments (14 days).

[2] = tested on: rat carotid artery model of balloon angioplasty; experiment: Enalaprilat, Compound II, Compound I in rat carotid artery model of balloon angioplasty; conditions: 1 mg/kg/day continuous i.v.; for Intimal Area + sem / % Inhibition (intimal area): pretreatment (pt), 14 days; for % Inhibition (intimal area): vs. control; for inhibition of restenosis / neointima (in words): pretreatment
Method: AII Receptor Antagonist: The effect of enalaprilat, the AII (site 2) receptor antagonist, Compound II, and Compound II in combination with the AII (site 1) receptor antagonist, Compound I, were evaluated in the rat carotid artery model of balloon angioplasty. Rats were pretreated surgery and drag treatment was continued (1 mg/kg/day, continuous i.v.) by ALZET minipump for the duration of the experiments. Fourteen days after balloon angioplasty, the rats were sacrificed and the extent of restenosis was determined by morphometric measurements of the newly-formed intima.

restenosis in the rat [3] = experiment: Effect of Compound I on restenosis in the rat: dose-response study; conditions: for I/M / Intima Area / Media Area: day 14
Method: The effect of Compound I on restenosis in the Rat: Dose-response study
Compound I was delivered as an i.v. bolus at the time of angioplasty (0.1-1.0 mg/kg) followed by continuous i.v. infusion (0.1-1.0 mg/kg/day) until sacrifice on day 14.

[4] = tested on: restenosis in the rat model; experiment: Effects of Compound II (alone, + Compound I, + heparin) and heparin on restenosis in the rat model (balloon angioplasty); conditions: for Intimal Area / % Inhibition of restenosis (intimal area): 14 days after balloon angioplasty, Compounds 1 mg/kg/day i.v. with 48 h pretreatment; for Intimal Area: heparin 0.3 mg/kg bolus + 0.3 mg/kg/hr i.v. for 4 days; for % Inhibition of restenosis (intimal area): heparin 0.3 mg/kg/hr i.v. for 4 days, vs. control
Method: The effects of the angiotensin II (Site II) receptor antagonist Compound II on restenosis in the rat model
A vehicle treatment group was compared to rats treated with: i) the AII (AT2) receptor antagonist, Compound II; ii) Compound II plus the AII (AT1) receptor antagonist, Compound I; (iii) Compound II+heparin; and iv) heparin only. Combination treatment with Compound II and Compound I were administered for the 48 hour period prior to surgery as well as on the day of surgery at 1 mg/kg/day by bolus i.v. Compound II and Compound I treatment was continued at the time of angioplasty at 1 mg/kg/day by continuous i.v. delivery via Alzet minipumps for the duration of the experiments (14 days). Heparin was delivered as a 0.3 mg/kg i.v. bolus at the time of angioplasty followed by continous i.v. delivery at 0.3 mg/kg/hr by Alzet minipump. Heparin treatment was discontinued 4 days later. Fourteen days after balloon angioplasty, the rats were sacrificed and the extent of restenosis was determined by morphometric measurements of the newly-formed intima.

restenosis in the rat [5] = experiment: Effect of Compound I pretreatment and Compound I-Heparin combination therapy on restenosis in the rat; conditions: for Intima Area: average ± sem
Method: The effect of Compound I pretreatment and Compound I--Heparin Combination therapy on restenosis in the rat
Compound I was delivered as an i.v. bolus at the time of angioplasty (1.0 mg/kg) followed by continuous i.v. infusion (1.0 mg/kg/day). Some groups were pretreated with Compound I. Pretreatment (PreRx) was begun 48 hr (1 mg/kg/day, i.v. bolus) prior to angioplasty. In all cases, Compound I treatment was continued for 14 days post-angioplasty. Other groups received Compound I in conjunction with heparin (0.3 mg/kg i.v. bolus+0.3 mg/kg/hr continuous i.v.) begun at the time of angioplasty and discontinued either 2 or 4 days later. The Hep 4d and Hep 2d data from above is included.

restenosis in the rat [6] = experiment: Effect of Heparin on restenosis in the rat: time course; conditions: for I/M / Intima Area / Media Area: heparin 0.3 mg/kg/hr i.v.
Method: The effect of Heparin on restenosis in the rat: time course
Heparin (0.3 mg/kg/hr) was delivered by i.v. bolus (0.3 mg/kg) at the time of angioplasty followed by continuous i.v. delivery for 2, 4 or 14 days (0.3 mg/kg,hr). The animals were sacrificed on day 14.

restenosis in the rat [7] = experiment: Effect of AII + Compound I on restenosis in the rat; conditions: for effect on formation of the neointima (in words): exogenous AII 14 ug/kg/hr i.v., with or without Compound I
Method: The effect of AII+Compound I on restenosis in the rat
AII was delivered by continuous i.v. infusion (14 ug/kg/hr) beginning at the time of angioplasty. Compound I was delivered as an i.v. bolus at the time of angioplasty (1.0 mg/kg) followed by continuous i.v. infusion (1.0 mg/kg/day). Rats were sacrificed on day 14.

[8] = no pretreatment, Hep 4d (0.3 mg/kg/hr i.v.)
[9] = AII 14 ug/kg/hr i.v., Compound I 1.0 mg/kg bolus + 1.0 mg/kg/day i.v., day 14
[10] = PreRx (48 hr, 1 mg/kg/day), no heparin
[11] = no pretreatment, no heparin, Compound I 1.0 mg/kg/day i.v., 14 days

Molecule: CCc1nc2ccc(N(Cc3ccccc3)C(=O)c3cccs3)cc2c(=O)n1Cc1ccc(-c2ccccc2-c2nn[nH]n2)cc1 [Compound II]
- inhibition of neointimal formation (in words) (restenosis in the rat [1]): may independently inhibit growth of the neointimal formation
- Intimal Area (restenosis in the rat [1]): 0.097 ± 0.027 mm^2
- % Inhibition (intimal area) (restenosis in the rat [1]): 53%
- Intimal Area + sem [2]: 0.097 ± 0.027 mm^2
- % Inhibition (intimal area) [2]: 53%
- inhibition of restenosis / neointima (in words) [2]: inhibit restenosis in this model; also recorded: independently inhibit neointima in this model
- inhibition of neointimal formation (in words) (restenosis in the rat [3]; 0.1-1.0 mg/kg/day i.v.): inhibits neointimal formation in a dose dependent manner
- Intimal Area [4]: 0.097 ± 0.027 mm^2
- % Inhibition of restenosis (intimal area) [4]: 53%
- effect upon neointimal formation (in words) ([4]; rat carotid model, administration alone): significant effect upon neointimal formation

Molecule: heparin
- I/M (restenosis in the rat [5]; Hep 2d alone): 1.14 ± 0.13
- Media Area (restenosis in the rat [5]; Hep 2d alone): 0.130 ± 0.008 mm^2
- Intima Area (restenosis in the rat [5]; Hep 2d alone): 0.144 ± 0.012 mm^2
- I/M (restenosis in the rat [5]; [8]): 1.17 ± 0.10
- Media Area (restenosis in the rat [5]; [8]): 0.136 ± 0.010 mm^2
- Intima Area (restenosis in the rat [5]; [8]): 0.158 ± 0.016 mm^2
- I/M (restenosis in the rat [6]; 2 days): 1.14 ± 0.13
- Intima Area (restenosis in the rat [6]; 2 days): 0.144 ± 0.012 mm^2
- Media Area (restenosis in the rat [6]; 2 days): 0.130 ± 0.008 mm^2
- I/M (restenosis in the rat [6]; 4 days): 1.17 ± 0.10
- Intima Area (restenosis in the rat [6]; 4 days): 0.158 ± 0.016 mm^2
- Media Area (restenosis in the rat [6]; 4 days): 0.136 ± 0.010 mm^2
- I/M (restenosis in the rat [6]; 14 days): 0.77 ± 0.05
- Intima Area (restenosis in the rat [6]; 14 days): 0.098 ± 0.008 mm^2
- Media Area (restenosis in the rat [6]; 14 days): 0.128 ± 0.004 mm^2
- effect on formation of neointima (in words) (restenosis in the rat [6]; heparin alone, 2, 4 or 14 days): decreases the formation of neointima; also recorded: greatest degree of inhibition was observed when heparin was given for 14 days
- Intimal Area [4]: 0.158 ± 0.016 mm^2
- % Inhibition of restenosis (intimal area) [4]: 23%

Molecule: C[C@H](N[C@@H](CCc1ccccc1)C(=O)O)C(=O)N1CCC[C@H]1C(=O)O [enalaprilat]
- Intimal Area + sem [2]: 0.133 ± 0.016 mm^2
- % Inhibition (intimal area) [2]: 35%
- inhibition of restenosis / neointima (in words) [2]: inhibit restenosis in this model; also recorded: independently inhibit neointima in this model

Molecule: Angiotensin II (DRVYIHPF; Angiotensin-2; UniProt P01019 25-32, looked up) [AII, powerful arterial vasoconstrictor]
- I/M (restenosis in the rat [7]; [9]): 1.92 ± 0.19
- Intima Area (restenosis in the rat [7]; [9]): 0.348 ± 0.047 mm^2
- Media Area (restenosis in the rat [7]; [9]): 0.176 ± 0.008 mm^2
- effect on formation of the neointima (in words) (restenosis in the rat [7]): stimulates the formation of the neointima by almost two fold

Molecule: CCc1nc2c(C)cc(C)nc2n1Cc1ccc(-c2ccccc2-c2nnn[nH]2)cc1 [Compound I, 5,7-dimethyl-2-ethyl-3-[(2'-(1H-tetrazol-5-yl)[1,1']-biphenyl-4-yl]-methyl]-3H-imidazo[4,5-b]pyridine]
- inhibition of neointimal formation (in words) (restenosis in the rat [1]): may independently inhibit growth of the neointimal formation
- Intimal Area (restenosis in the rat [1]): 0.121 ± 0.012 mm^2
- % Inhibition (intimal area) (restenosis in the rat [1]): 41%
- Intimal Area + sem [2]: 0.121 ± 0.012 mm^2
- % Inhibition (intimal area) [2]: 41%
- inhibition of restenosis / neointima (in words) [2]: independently inhibit neointima in this model
- I/M (restenosis in the rat [5]; [10]): 1.01 ± 0.07
- Media Area (restenosis in the rat [5]; [10]): 0.124 ± 0.006 mm^2
- Intima Area (restenosis in the rat [5]; [10]): 0.125 ± 0.010 mm^2
- I/M (restenosis in the rat [5]; [11]): 1.19 ± 0.04
- Media Area (restenosis in the rat [5]; [11]): 0.125 ± 0.006 mm^2
- Intima Area (restenosis in the rat [5]; [11]): 0.149 ± 0.009 mm^2
- reduction in the neointimal area (in words) (restenosis in the rat [5]; pretreatment for 2 days or co-administration of heparin): reduction in the neointimal area when compared with no pretreatment
- I/M (restenosis in the rat [3]; 0.1 mg/kg/day i.v.): 1.64 ± 0.09
- Intima Area (restenosis in the rat [3]; 0.1 mg/kg/day i.v.): 0.212 ± 0.013 mm^2
- Media Area (restenosis in the rat [3]; 0.1 mg/kg/day i.v.): 0.129 ± 0.003 mm^2
- I/M (restenosis in the rat [3]; 0.3 mg/kg/day i.v.): 1.47 ± 0.19
- Intima Area (restenosis in the rat [3]; 0.3 mg/kg/day i.v.): 0.148 ± 0.014 mm^2
- Media Area (restenosis in the rat [3]; 0.3 mg/kg/day i.v.): 0.103 ± 0.009 mm^2
- I/M (restenosis in the rat [3]; 1.0 mg/kg/day i.v.): 1.24 ± 0.04
- Intima Area (restenosis in the rat [3]; 1.0 mg/kg/day i.v.): 0.149 ± 0.009 mm^2
- effect on formation of the neointima (in words) (restenosis in the rat [7]): inhibits this stimulation
